Data as given in ChEMBL document CHEMBL2331354, “Spirocyclic replacements for the isatin in the highly selective, muscarinic M1 PAM ML137: the continued optimization of an MLPCN probe molecule” (Bioorg Med Chem Lett, 2013).
Active and inactive are the calls of the source. No cut-off for these calls is given here.

What was measured:
[1] = target: T1, Muscarinic acetylcholine receptor M1 (Homo sapiens) (UniProt P11229); assay: Positive allosteric modulation of human muscarinic M1 receptor relative to acetylcholine
T1 sequence (whole entry): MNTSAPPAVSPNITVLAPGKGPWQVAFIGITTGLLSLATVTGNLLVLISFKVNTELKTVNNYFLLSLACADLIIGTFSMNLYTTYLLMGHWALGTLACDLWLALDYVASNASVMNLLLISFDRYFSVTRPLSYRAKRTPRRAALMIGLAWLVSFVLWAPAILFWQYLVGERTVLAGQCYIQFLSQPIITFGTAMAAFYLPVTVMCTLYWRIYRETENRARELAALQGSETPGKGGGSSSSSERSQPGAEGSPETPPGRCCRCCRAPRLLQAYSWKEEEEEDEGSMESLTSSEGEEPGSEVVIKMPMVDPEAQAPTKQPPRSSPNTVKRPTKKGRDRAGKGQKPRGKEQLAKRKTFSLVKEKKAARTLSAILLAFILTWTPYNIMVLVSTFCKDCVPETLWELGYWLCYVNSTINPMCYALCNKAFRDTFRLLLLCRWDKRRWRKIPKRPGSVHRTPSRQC

[2] = target: T1, Muscarinic acetylcholine receptor M1 (Homo sapiens); assay: Positive allosteric modulation of human muscarinic M1 receptor assessed as leftward fold shift of acetylcholine-induced response at 30 uM relative to acetylcholine
[3] = target: T2, Muscarinic acetylcholine receptor M1 (Homo sapiens, UniProt P11229); assay: Positive allosteric modulation of human muscarinic M1 receptor
T2 sequence (P11229 whole entry): T1 sequence (whole entry)

[4] = target: T1, Muscarinic acetylcholine receptor M1 (Homo sapiens); assay: Positive allosteric modulation of human muscarinic M1 receptor at 30 uM

Structure (SMILES) | Emax [1] [%] | EC50 [3] [µM] | also measured
Cn1cc(-c2ccc(CN3C(=O)C(=O)c4ccccc43)c(F)c2)cn1 | 45 |  | fold change (FC) [2]: 2.7; pEC50 [3]: 6.22
Cn1cc(-c2ccc(CN3C(=O)C4(CCN(C5CCCC5)C4)c4ccccc43)cc2F)cn1 (stereo not drawn) | 28 | 2 | 
Cn1cc(-c2cc(F)c(CN3C(=O)C4(CCN(C5CCCC5)C4)c4ccccc43)c(F)c2)cn1 (stereo not drawn) | 66 | 2.6 | 
Cn1cc(-c2cc(F)c(CN3C(=O)C4(CCN(C5CCCC5)C4)c4ccccc43)cc2F)cn1 (stereo not drawn) | 51 | 4.1 | 
CN1CCC2(CC1)C(=O)N(Cc1ccc(-c3cnn(C)c3)cc1F)c1ccccc12 | 49 | 3.8 | 
Cn1cc(-c2ccc(CN3C(=O)C4(CCNCC4)c4ccccc43)c(F)c2)cn1 | 29 | > 10 | 
Cn1cc(-c2ccc(CN3CC4(OCCO4)c4ccccc43)c(F)c2)cn1 | 43 | > 10 | 
CN1CCCC12C(=O)N(Cc1ccc(-c3cnn(C)c3)cc1)c1ccccc12 (stereo not drawn) | 53 | > 10 | 
CN1CCCC12C(=O)N(Cc1ccc(Br)cc1)c1ccccc12 (stereo not drawn) |  |  | Activity [4]: inactive
C[Si](C)(C)C1COC2(C1)C(=O)N(Cc1ccc(Br)cc1)c1ccccc12 (stereo not drawn) |  |  | Activity [4]: inactive
Cc1c(-c2ccc(CN3C(=O)C4(CCN(C5CCCC5)C4)c4ccccc43)c(F)c2)cnn1C (stereo not drawn) |  |  | Activity [4]: inactive
Cc1nn(C)c(C)c1-c1ccc(CN2C(=O)C3(CCN(C4CCCC4)C3)c3ccccc32)c(F)c1 (stereo not drawn) |  |  | Activity [4]: inactive
Cn1cc(-c2ccc(CN3C(=O)C4(CCN(C5CCCC5)C4)c4ccccc43)c(F)c2)c(C(F)(F)F)n1 (stereo not drawn) |  |  | Activity [4]: inactive
Cn1cc(-c2ccc(CN3C(=O)C4(CCNC4)c4ccccc43)c(F)c2)cn1 (stereo not drawn) |  |  | Activity [4]: inactive
O=C1N(Cc2ccc(Br)cc2)c2ccccc2C12CCCN2 (stereo not drawn) |  |  | Activity [4]: inactive
O=C1N(Cc2ccc(Br)cc2)c2ccccc2C12CCCO2 (stereo not drawn) |  |  | Activity [4]: inactive

Structure (SMILES) | Emax [1] [%] | EC50 [3] [µM] | also measured
Cn1cc(-c2ccc(CN3C(=O)C4(CCN(c5ncccn5)C4)c4ccccc43)c(F)c2)cn1 (racemic) | 64 | 2.5 | fold change (FC) [2]: 17.4
CCN1CCC2(C1)C(=O)N(Cc1ccc(-c3cnn(C)c3)cc1F)c1ccccc12 (racemic) | 59 | 3.2 | fold change (FC) [2]: 8.3
Cn1cc(-c2ccc(CN3C(=O)C4(CCN(CCF)C4)c4ccccc43)c(F)c2)cn1 (racemic) | 60 | 4.1 | fold change (FC) [2]: 13.5
Cn1cc(-c2ccc(CN3C(=O)C4(CCN(CC(F)F)C4)c4ccccc43)c(F)c2)cn1 (racemic) | 52 | > 10 | fold change (FC) [2]: 5.9
Cn1cc(-c2ccc(CN3C(=O)C4(CCN(S(C)(=O)=O)C4)c4ccccc43)c(F)c2)cn1 (racemic) | 41 | > 10 | 
Cn1cc(-c2ccc(CN3C(=O)C4(CCN(C5CCC5)C4)c4ccccc43)c(F)c2)cn1 (racemic) | 48 | > 10 | 
Cn1cc(-c2ccc(CN3C(=O)C4(CCN(C(=O)OC(C)(C)C)C4)c4ccccc43)c(F)c2)cn1 (racemic) |  |  | Activity [4]: inactive
Cn1cc(-c2ccc(CN3C(=O)C4(CCN(C5CCCC5)C4)c4ccccc43)c(F)c2)cn1 (racemic) [listing 2 of 2 here] | 57 |  | 
Cn1cc(-c2ccc(CN3C(=O)C4(CCN(CC(F)(F)F)C4)c4ccccc43)c(F)c2)cn1 (racemic) |  |  | Activity [4]: inactive
Cn1cc(-c2ccc(CN3C(=O)C4(CCN(c5ccccc5)C4)c4ccccc43)c(F)c2)cn1 (racemic) |  |  | Activity [4]: inactive
CN1CCC2(C1)C(=O)N(Cc1ccc(-c3cnn(C)c3)cc1F)c1ccccc12 (single isomer, unassigned) [listing 1 of 2 here] |  | 2.9 | 
Cn1cc(-c2ccc(CN3C(=O)C4(CCN(C5CCCC5)C4)c4ccccc43)c(F)c2)cn1 (single isomer, unassigned; 19g) [listing 1 of 2 here] |  | 1.6 | 
Cn1cc(-c2ccc(CN3C(=O)C4(CCN(C5CCCC5)C4)c4ccccc43)c(F)c2)cn1 (single isomer, unassigned; 19g) [listing 2 of 2 here] | 69 |  | fold change (FC) [2]: 28
Cn1cc(-c2ccc(CN3C(=O)C4(CCN(C5CCCC5)C4)c4ccccc43)c(F)c2)cn1 (single isomer, unassigned; 19h) | 33 |  | 
CN1CCC2(C1)C(=O)N(Cc1ccc(-c3cnn(C)c3)cc1F)c1ccccc12 (stereo in doubt; 19a) [listing 2 of 2 here] | 67 |  | fold change (FC) [2]: 21

More lines, main results first:

Emax [1] [%] | EC50 [3] [µM] | Structure (SMILES) | also measured
41 | 3 | Cc1nn(C)cc1-c1ccc(CN2C(=O)C3(CCN(C4CCCC4)C3)c3ccccc32)c(F)c1 (stereo not drawn) | 
43 | > 10 | Cn1cc(-c2ccc(CN3C(=O)C4(CCN(C5CCCC5)C4)c4ccccc43)c(F)c2F)cn1 (stereo not drawn) | 
44 | 1.8 | Cn1cc(-c2ccc(CN3C(=O)C4(CCN(C5CCCC5)C4)c4ccccc43)cc2)cn1 (stereo not drawn) | 
28 | > 10 | CN1CCC2(CCN(Cc3ccc(-c4cnn(C)c4)cc3F)C2=O)C1 (stereo not drawn) | 
62 | 2 | Cn1cc(-c2ccc(CN3C(=O)C4(OCCO4)c4ccccc43)c(F)c2)cn1 | fold change (FC) [2]: 27
43 | > 10 | Cn1cc(-c2ccc(CN3C(=O)C4(CCCO4)c4ccccc43)cc2)cn1 (stereo not drawn) | 
41 | > 10 | CC(=O)N1CCC2(C1)C(=O)N(Cc1ccc(-c3cnn(C)c3)cc1F)c1ccccc12 (racemic) | 
45 | 6.3 | Cn1cc(-c2ccc(CN3C(=O)C4(CCN(C(=O)C5CCC5)C4)c4ccccc43)c(F)c2)cn1 (racemic) | 
50 | 5 | Cn1cc(-c2ccc(CN3C(=O)C4(CCN(C(=O)C5CCCCC5)C4)c4ccccc43)c(F)c2)cn1 (racemic) | 
 | 3.1 | Cn1cc(-c2ccc(CN3C(=O)C4(CCN(C5CCCC5)C4)c4ccccc43)c(F)c2)cn1 (racemic) [listing 1 of 2 here] | 
60 | 5.2 | Cn1cc(-c2ccc(CN3C(=O)C4(CCN(C5CCCCC5)C4)c4ccccc43)c(F)c2)cn1 (racemic) | 
50 | 7.5 | Cn1cc(-c2ccc(CN3C(=O)C4(CCN(C5CCCCCC5)C4)c4ccccc43)c(F)c2)cn1 (racemic) | 
30 | > 10 | CC(C)N1CCC2(C1)C(=O)N(Cc1ccc(-c3cnn(C)c3)cc1F)c1ccccc12 (racemic) | 
50 |  | CN1CCC2(C1)C(=O)N(Cc1ccc(-c3cnn(C)c3)cc1F)c1ccccc12 (single isomer, unassigned) [listing 2 of 2 here] | fold change (FC) [2]: 7.2
 | 3.2 | CN1CCC2(C1)C(=O)N(Cc1ccc(-c3cnn(C)c3)cc1F)c1ccccc12 (stereo in doubt; 18d) [listing 1 of 2 here] | 
65 |  | CN1CCC2(C1)C(=O)N(Cc1ccc(-c3cnn(C)c3)cc1F)c1ccccc12 (stereo in doubt; 18d) [listing 2 of 2 here] | 
 | 2.9 | CN1CCC2(C1)C(=O)N(Cc1ccc(-c3cnn(C)c3)cc1F)c1ccccc12 (stereo in doubt; 19a) [listing 1 of 2 here] | 
